Measurements taken from PMC5975062 (Alzheimer's & Dementia : Translational Research & Clinical …, 2015).
Marks after values point to notes of the source that are not given here.

Experiment: Safety and tolerability
Assay type: in vivo, human
[1] = 20 mg bid 11 d solution, fasted, nonelderly
[2] = 50 mg bid 11 d solution, fasted, nonelderly
[3] = 100 mg bid 11 d solution, fed, nonelderly
[4] = 200 mg bid 7 d capsule, fasted, elderly
[5] = 200 mg bid 11 d solution, fasted, nonelderly
[6] = 300 mg bid 7 d capsule, fasted, elderly
[7] = 400 mg bid 11 d capsule, fasted, nonelderly
[8] = 500 mg bid 11 d capsule, fed, nonelderly
[9] = 500 mg bid 11 d tablet, fasted, elderly
[10] = 800 mg bid 11 d tablet, fasted, elderly

## CCCOc1ccc([C@H]2CNC(=O)N2c2ccc3[nH]cnc3c2)cc1 [PQ912]
[1]
  Abdominal pain, number of TEAEs: 1 [1]
  Abdominal pain, number of subjects: 1 [1]
  Headache, number of TEAEs: 7
  Headache, number of subjects: 3
  Neck pain, number of TEAEs: 1 [1]
  Neck pain, number of subjects: 1 [1]
  Number of AEs: 16
  Subjects with AEs, number: 7
  Subjects with AEs, percentage of total subjects: 87.5%
[2]
  Abdominal pain, number of TEAEs: 1 [1]
  Abdominal pain, number of subjects: 1 [1]
  Chest pain, number of TEAEs: 1 [1]
  Chest pain, number of subjects: 1 [1]
  Dizziness, number of TEAEs: 1 [1]
  Dizziness, number of subjects: 1 [1]
  Headache, number of TEAEs: 8
  Headache, number of subjects: 4
  Injection site pain, number of TEAEs: 6
  Injection site pain, number of subjects: 5
  Nausea, number of TEAEs: 1 [1]
  Nausea, number of subjects: 1 [1]
  Number of AEs: 22
  Subjects with AEs, number: 7
  Subjects with AEs, percentage of total subjects: 87.5%
[3]
  Back pain, number of TEAEs: 1 [1]
  Back pain, number of subjects: 1 [1]
  Chest pain, number of TEAEs: 1 [1]
  Chest pain, number of subjects: 1 [1]
  Headache, number of TEAEs: 4
  Headache, number of subjects: 3
  Injection site pain, number of TEAEs: 3 [3]
  Injection site pain, number of subjects: 3 [3]
  Number of AEs: 16
  Presyncope, number of TEAEs: 6 [6]
  Presyncope, number of subjects: 6 [6]
  Subjects with AEs, number: 8
  Subjects with AEs, percentage of total subjects: 100.0%
[4]
  Number of AEs: 3
  Subjects with AEs, number: 3
  Subjects with AEs, percentage of total subjects: 50.0%
[5]
  Abdominal pain, number of TEAEs: 1 [1]
  Abdominal pain, number of subjects: 1 [1]
  Back pain, number of TEAEs: 1 [1]
  Back pain, number of subjects: 1 [1]
  Chest pain, number of TEAEs: 1 [1]
  Chest pain, number of subjects: 1 [1]
  Diarrhea, number of TEAEs: 1 [1]
  Diarrhea, number of subjects: 1 [1]
  Flatulence, number of TEAEs: 1 [1]
  Flatulence, number of subjects: 1 [1]
  Nausea, number of TEAEs: 1 [1]
  Nausea, number of subjects: 1 [1]
  Neck pain, number of TEAEs: 1 [1]
  Neck pain, number of subjects: 1 [1]
  Number of AEs: 11
  Subjects with AEs, number: 6
  Subjects with AEs, percentage of total subjects: 75.0%
[6]
  Back pain, number of TEAEs: 1 [1]
  Back pain, number of subjects: 1 [1]
  Headache, number of TEAEs: 4 [4]
  Headache, number of subjects: 4 [4]
  Injection site pain, number of TEAEs: 4 [4]
  Injection site pain, number of subjects: 4 [4]
  Number of AEs: 13
  Pain in extremity, number of TEAEs: 2
  Pain in extremity, number of subjects: 1
  Subjects with AEs, number: 6
  Subjects with AEs, percentage of total subjects: 75.0%
[7]
  Abdominal pain, number of TEAEs: 1 [1]
  Abdominal pain, number of subjects: 1 [1]
  Back pain, number of TEAEs: 1 [1]
  Back pain, number of subjects: 1 [1]
  Headache, number of TEAEs: 4
  Headache, number of subjects: 3
  Number of AEs: 9
  Presyncope, number of TEAEs: 1 [1]
  Presyncope, number of subjects: 1 [1]
  Subjects with AEs, number: 5
  Subjects with AEs, percentage of total subjects: 62.5%
[8]
  Abdominal pain, number of TEAEs: 1 [1]
  Abdominal pain, number of subjects: 1 [1]
  Abnormal sensation in eye, number of TEAEs: 2 [2]
  Abnormal sensation in eye, number of subjects: 2 [2]
  Back pain, number of TEAEs: 5
  Back pain, number of subjects: 4
  Diarrhea, number of TEAEs: 1 [1]
  Diarrhea, number of subjects: 1 [1]
  Dizziness, number of TEAEs: 2 [2]
  Dizziness, number of subjects: 2 [2]
  Headache, number of TEAEs: 3 [3]
  Headache, number of subjects: 3 [3]
  Nausea, number of TEAEs: 1 [1]
  Nausea, number of subjects: 1 [1]
  Number of AEs: 30 ^‡
  Pain in extremity, number of TEAEs: 2 [2]
  Pain in extremity, number of subjects: 2 [2]
  Subjects with AEs, number: 8
  Subjects with AEs, percentage of total subjects: 100.0%
[9]
  Abdominal pain, number of TEAEs: 1 [1]
  Abdominal pain, number of subjects: 1 [1]
  Back pain, number of TEAEs: 1 [1]
  Back pain, number of subjects: 1 [1]
  Constipation, number of TEAEs: 2 [2]
  Constipation, number of subjects: 2 [2]
  Contusion, number of TEAEs: 3
  Contusion, number of subjects: 2
  Diarrhea, number of TEAEs: 1 [1]
  Diarrhea, number of subjects: 1 [1]
  Dizziness, number of TEAEs: 2
  Dizziness, number of subjects: 1
  Headache, number of TEAEs: 4
  Headache, number of subjects: 2
  Injection site pain, number of TEAEs: 1 [1]
  Injection site pain, number of subjects: 1 [1]
  Nausea, number of TEAEs: 4
  Nausea, number of subjects: 3
  Number of AEs: 32
  Subjects with AEs, number: 9
  Subjects with AEs, percentage of total subjects: 75.0%
[10]
  Chest pain, number of TEAEs: 2
  Chest pain, number of subjects: 1
  Constipation, number of TEAEs: 2 [2]
  Constipation, number of subjects: 2 [2]
  Contusion, number of TEAEs: 1 [1]
  Contusion, number of subjects: 1 [1]
  Diarrhea, number of TEAEs: 1 [1]
  Diarrhea, number of subjects: 1 [1]
  Flatulence, number of TEAEs: 3 [3]
  Flatulence, number of subjects: 3 [3]
  Headache, number of TEAEs: 2 [2]
  Headache, number of subjects: 2 [2]
  Nausea, number of TEAEs: 2 [2]
  Nausea, number of subjects: 2 [2]
  Neck pain, number of TEAEs: 1 [1]
  Neck pain, number of subjects: 1 [1]
  Number of AEs: 34
  Pollakiuria, number of TEAEs: 2 [2]
  Pollakiuria, number of subjects: 2 [2]
  Subjects with AEs, number: 6
  Subjects with AEs, percentage of total subjects: 100%
500-mg bid, 11 days, capsule, fed, about 3.5 hours after the 18th dose
  subjects withdrawn because of a TEAE (urticaria papular): One subject
After multiple doses, 102 subjects (PQ912 or placebo)
  drug-related TEAEs, events: 113
After multiple doses, of 102 subjects (PQ912 or placebo)
  subjects reporting drug-related TEAEs: 47
After single doses, 104 subjects (PQ912 or placebo)
  drug-related TEAEs, events: 25
After single doses, of 104 subjects (PQ912 or placebo)
  subjects reporting drug-related TEAEs: 16
Increases in serum potassium, erythrocytes, leukocytes
  subjects with clinically significant changes in clinical laboratory parameters: four subjects
Single 30 mg solution, fasted
  Back pain, number of TEAEs: 1 [1]
  Back pain, number of subjects: 1 [1]
  Number of AEs: 2
  Subjects with AEs, number: 2
  Subjects with AEs, percentage of total subjects: 33.3%
Single 50 mg solution, fasted
  Back pain, number of TEAEs: 1 [1]
  Back pain, number of subjects: 1 [1]
  Fatigue, number of TEAEs: 1 [1]
  Fatigue, number of subjects: 1 [1]
  Headache, number of TEAEs: 3
  Headache, number of subjects: 2
  Injection site pain, number of TEAEs: 1 [1]
  Injection site pain, number of subjects: 1 [1]
  Nausea, number of TEAEs: 1 [1]
  Nausea, number of subjects: 1 [1]
  Number of AEs: 11
  Subjects with AEs, number: 5
  Subjects with AEs, percentage of total subjects: 83.3%
  Vomiting, number of TEAEs: 2
  Vomiting, number of subjects: 1
Single 100 mg solution, fasted
  Back pain, number of TEAEs: 3 [3]
  Back pain, number of subjects: 3 [3]
  Fatigue, number of TEAEs: 1 [1]
  Fatigue, number of subjects: 1 [1]
  Number of AEs: 7
  Subjects with AEs, number: 3
  Subjects with AEs, percentage of total subjects: 37.5%
Single 400 mg solution, fasted
  Back pain, number of TEAEs: 2 [2]
  Back pain, number of subjects: 2 [2]
  Headache, number of TEAEs: 1 [1]
  Headache, number of subjects: 1 [1]
  Injection site pain, number of TEAEs: 1 [1]
  Injection site pain, number of subjects: 1 [1]
  Number of AEs: 7
  Presyncope, number of TEAEs: 1 [1]
  Presyncope, number of subjects: 1 [1]
  Subjects with AEs, number: 4
  Subjects with AEs, percentage of total subjects: 33.3%
Single 800 mg capsule, fasted
  Nausea, number of TEAEs: 1 [1]
  Nausea, number of subjects: 1 [1]
  Number of AEs: 2
  Subjects with AEs, number: 1
  Subjects with AEs, percentage of total subjects: 16.7%
  Vomiting, number of TEAEs: 1 [1]
  Vomiting, number of subjects: 1 [1]
Single 1200 mg capsule, fed
  Headache, number of TEAEs: 1 [1]
  Headache, number of subjects: 1 [1]
  Number of AEs: 2
  Subjects with AEs, number: 1
  Subjects with AEs, percentage of total subjects: 16.7%
Single 1800 mg tablet, fasted
  Nausea, number of TEAEs: 2 [2]
  Nausea, number of subjects: 2 [2]
  Number of AEs: 2
  Subjects with AEs, number: 2
  Subjects with AEs, percentage of total subjects: 33.3%
Single doses up to 3600 mg, bid doses up to 800 mg
  overall safety and tolerability: safe and well tolerated
Whole study
  serious adverse events: no serious adverse events
  vital signs, 12-lead ECGs, telemetry, physical examinations: no clinically significant findings
